We go through 1 compound from paper PMC5722316, “Synthesis of novel purpurealidin analogs and evaluation of their effect on the cancer-relevant potassium channel KV10.1” (PLoS ONE, 2017).

The IC50 is the concentration that gives 50% inhibition. The term EC50 denotes the midpoint of the concentration-response curve. Usually melting point stands for the temperature, or range, at which the solid turns liquid.

The subject of series [1] is DU145. In words: Proliferation assay (IncuCyte live-cell imaging, cell confluency). Type of series: cell-based. As to conditions: Homo sapiens, DU-145, indicative, from AUC vs concentration (2-100 μM), read-out: Antiproliferative effect (IC50). On the procedure: (§1) Cell lines SH-SY5Y (ACC 209), DU145 (ACC 261), LNCaP (ACC 256) and NIH-3T3 (ACC 59) were purchased from DSMZ (Germany). MDA-MB-435S (HTB 129) and hTERT RPE-1 (CRL 4000) were obtained from ATCC (USA). Cell lines were cultured in their recommended media Supplemented with 10% or 15% FCS (PAA laboratories, Germany) at 37°C in humidified 5% CO2 atmosphere. All media were purchased from ThermoFisher Scientific (Waltham, Massachusetts, United States).
(§2) Cell proliferation, cytotoxicity and apoptosis were assessed in a 96-well microtiter plate by live-cell imaging using an IncuCyte Zoom System (Essen BioScience, UK). Cell proliferation was monitored in terms of cell confluency (%). Cell cytotoxicity was assessed by the CellTox Green Dye assay (Promega, Madison, Wisconsin, USA). The Incucyte Caspase-3/7 apoptosis assay (Essen BioScience, UK) was used to evaluate the effect of compound 5 on the apoptotic pathway. As negative controls media supplemented with 0.05% of DMSO were used.
(§3) Live-cell imaging data were collected from the IncuCyte Zoom software and analyzed using GraphPad Prism 5 software. Proliferation was measured as Phase Object Confluence (%), cytotoxicity and apoptosis were measured as Green Object Count (1/mm^2). All data are represented as mean S.E.M of n = 6 different wells.
(§4) The following concentrations of compound 5 were added to the different cell lines, 100 μM, 50 μM, 20 μM, 10 μM, 5 μM and 2 μM to assess its effect on cell proliferation (S1 Fig) and cytotoxicity (S2 Fig). Indicative IC50-values for the proliferation assays were obtained by plotting the areas under the curve (AUC × 10^3) against the tested compound 5 concentrations and by fitting the curve with a logistic dose-response equation. The EC50-values for the cytotoxicity assays were calculated correspondingly (S3 Fig). Although more data points would be necessary to calculate precise IC50 and EC50-values, it is clear that compound 5 inhibits the proliferation and induces cytotoxicity in all the tested cell lines in the low to middle micromolar range.

The test system of series [2] is LNCAP. The series is described as above. Type of series: cell-based. The settings on record: Homo sapiens, indicative, from AUC vs concentration (2-100 μM), read-out: Antiproliferative effect (IC50). As to the method: as §1, §2, §3, §4
The test system of series [3] is MDA-MB-435S. Described as above. Type of series: cell-based. The settings on record: Homo sapiens, indicative, from AUC vs concentration (2-100 μM), read-out: Antiproliferative effect (IC50). As to the method:
as §1, §2, §3, §4

In series [4] the test system is NIH-3T3. The description is as above. Type of series: cell-based. As to conditions: Mus musculus, NIH3T3, indicative, from AUC vs concentration (2-100 μM), read-out: Antiproliferative effect (IC50). On the procedure:
as §1, §2, §3, §4

For series [5], the system named is SH-SY5Y. The description is as above. The class given is cell-based. As to conditions: Homo sapiens, indicative, from AUC vs concentration (2-100 μM), read-out: Antiproliferative effect (IC50). On the procedure: as §1, §2, §3, §4
Series [6] has as its system hTERT RPE-1. Described as above. Type of series: cell-based. The settings on record: Homo sapiens, hTERT-RPE1, indicative, from AUC vs concentration (2-100 μM), read-out: Antiproliferative effect (IC50). As to the method: as §1, §2, §3, §4
Series [7] can be described thus: Cytotoxicity assay (CellTox Green Dye, IncuCyte). The class given is cell-based. As to conditions: indicative, from AUC vs concentration (2-100 μM), read-out: Cytotoxic effect (EC50). As to the method:
as §1, §2, §3, §4

The subject of series [8] is SH-SY5Y, DU145, LNCaP, NIH-3T3, MDA-MB-435S and hTERT RPE-1 cell lines. The experiment in a line: Incucyte Caspase-3/7 apoptosis assay. Type of series: cell-based. As to conditions: 100 μM, 50 μM and 20 μM; all the cell lines. As to the method:
as §1, §2
Live-cell imaging data were collected from the IncuCyte Zoom software and analyzed using GraphPad Prism 5 software. Proliferation was measured as Phase Object Confluence (%), cytotoxicity and apoptosis were measured as Green Object Count (1/mm^2). All data are represented as mean S.E.M of n = 6 different wells. […]

Series [9] has as its system Xenopus oocytes. In words: 48-h incubation of Xenopus oocytes, oocyte quality. The class given is cell-based, Xenopus laevis. As to conditions: 10 μM. The source says:
A dose-dependent antiproliferative and cytotoxic effect was not only observed on the KV10.1-expressing cells but also on the control cell lines.

Series [10] deals with T1, hKV10.1a (Homo sapiens, UniProt O95259).
T1 construct: expressed in transfected cells; host or cells: Xenopus laevis oocytes injected with cRNA transcribed from the hKV10.1a-pSGEM plasmid
T1 sequence (O95259 1-962 isoform O95259-2): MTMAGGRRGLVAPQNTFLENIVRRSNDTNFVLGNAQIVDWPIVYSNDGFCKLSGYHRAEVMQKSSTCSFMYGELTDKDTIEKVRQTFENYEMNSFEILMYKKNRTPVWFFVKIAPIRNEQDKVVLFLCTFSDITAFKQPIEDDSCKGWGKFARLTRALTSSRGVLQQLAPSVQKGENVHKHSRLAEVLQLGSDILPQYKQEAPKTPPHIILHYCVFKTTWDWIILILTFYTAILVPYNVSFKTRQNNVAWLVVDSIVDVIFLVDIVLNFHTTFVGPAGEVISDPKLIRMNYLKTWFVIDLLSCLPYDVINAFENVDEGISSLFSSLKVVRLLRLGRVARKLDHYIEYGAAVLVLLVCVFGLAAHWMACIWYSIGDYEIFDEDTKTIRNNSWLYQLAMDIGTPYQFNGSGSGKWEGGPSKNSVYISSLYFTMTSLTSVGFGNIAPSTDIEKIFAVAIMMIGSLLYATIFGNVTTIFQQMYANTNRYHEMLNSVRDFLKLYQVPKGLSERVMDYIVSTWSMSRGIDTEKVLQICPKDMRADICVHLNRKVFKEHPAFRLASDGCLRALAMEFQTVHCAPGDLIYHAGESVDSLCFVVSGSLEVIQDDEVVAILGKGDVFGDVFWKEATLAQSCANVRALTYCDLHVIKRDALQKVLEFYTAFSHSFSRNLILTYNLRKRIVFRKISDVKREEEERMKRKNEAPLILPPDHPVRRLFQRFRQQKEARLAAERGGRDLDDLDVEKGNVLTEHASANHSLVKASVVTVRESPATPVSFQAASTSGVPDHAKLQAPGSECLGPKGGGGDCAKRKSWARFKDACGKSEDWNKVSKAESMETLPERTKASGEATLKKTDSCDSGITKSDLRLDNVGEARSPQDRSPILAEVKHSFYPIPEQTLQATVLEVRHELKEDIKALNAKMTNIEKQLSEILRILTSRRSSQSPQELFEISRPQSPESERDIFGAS
In words: Two-electrode voltage-clamp recordings of KV10.1 currents in Xenopus laevis oocytes. Type of series: cell-based.

Like-named read-outs stand apart in the source and are kept apart here.

Take `COc1ccc(C(=O)NCCc2cc(Br)c(OCCCN(C)C)c(Br)c2)cc1Cl` [Compound 5, 3-Chloro-N-[3,5-dibromo-4-[3-(dimethylamino)propoxy]phenethyl]-4-methoxybenzamide]: the melting point lay in the range of 79 to 81 °C. In addition, in series [1], the IC50 was found to be 28.9 µM. In addition, in series [2], the IC50 came to 26.4 µM. Also, in [3], the IC50 came out at 28.1 µM. Further, the IC50 in series [4] was 7.13 µM. Besides, the IC50 in [5] was found to be 12.2 µM. The IC50 in [6] is 12.5 µM. Besides, in series [7] (human, DU145 cells), the EC50 was 60.4 µM. For the same compound, the EC50 in series [7] (human, LNCaP cells) was 40.4 µM. Also, in [7] (human, MDA-MB-435S cells), the EC50 was 16.5 µM. For the same compound, the EC50 in series [7] (human, SH-SY5Y cells) stood at 15.3 µM. Moreover, the EC50 in series [7] (human, hTERT RPE-1 cells) came out at 15.6 µM. Moreover, in series [7] (mouse, NIH-3T3 cells), the EC50 was found to be 4.58 µM. Further, in series [8], the “caspase-3/7 activity (induction of the apoptotic pathway)” value is reported as “caspase-3/7 activity was detected”. In [9], the “oocyte quality (visual and electrophysiological observation)” value was “did not result in noticeable deterioration of the oocyte quality”. Further, in series [10] (10 μM added during 20-s continuous step to 30 mV, no P/4 leak subtraction), the “time constant (τ) of current decrease on open channels” value is ~ 1.4 s. Besides, the “shift of activation curve (ΔV1/2) to more negative potentials” value in [10] (10 μM, HK solution ([K+]e = 96 mM), Boltzmann fit) was 14.8 ± 2.1 mV. Also, the “half-maximal voltage of activation (V1/2) in presence of compound” value in series [10] (10 μM, HK solution ([K+]e = 96 mM), control V1/2 = 39.3 ± 1.7 mV) was determined as 24.5 ± 1.3 mV. In addition, the “slope factor k of activation curve in presence of compound” value in series [10] (10 μM, HK solution, control k = 15.7 ± 0.9) amounted to 14.5± 1.0.
